According to patent US20220073475A1, “5-MEMBERED HETEROARYL COMPOUNDS CONTAINING A HYDROXAMATE MOIETY AND THEIR USE” (UNIVERSITE DE LILLE, priority 2019, published 2022):

Columns and labels:
OPM2 cells = assay: CFZ potency increase, ratio of CC50 of CFZ alone / with compound; type: cell-based, human
Outline: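 OPM2 cells (12,000/well, 0.2% DMSO) treated with compound plus carfilzomib, with NucView 488 caspase-3/7 substrate (1 μM) and Hoechst 33342, 37 °C; confocal imaging over time gives % apoptotic cells. CFZ CC50 from 4-parameter fits alone and with compound; activity = CC50 alone / CC50 with compound.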

HeLa cells = assay: as above; type: cell-based, human; conditions: compound at 7.5 μM
From the text: Human HeLa cells (uterine cervical carcinoma) are maintained in DMEM medium supplemented with GlutaMAX™, 10% fetal bovine serum and 1% penicillin-streptomycin.
(§1) We developed a cell-based, high content assay allowing the rapid detection and quantification of apoptotic cells. Caspase-3/7 activity was detected in real-time using the NucView™ 488 Caspase-3 substrate (Biotium), where the caspase-3/7 substrate peptide sequence DEVD is attached to a nucleic acid dye. The NucView™ 488 reagent crosses the plasma membrane to enter the cytoplasm, where the dye is unable to bind to DNA and remains non-fluorescent. Once the substrate has been cleaved by activated caspase-3/7 in apoptotic cells, the high-affinity DNA dye is released and migrates to the cell nucleus to stain the nucleus with a bright green fluorescence. All cell nuclei were also labeled with Hoechst 33342 (Ozyme).
(§2) For HeLa and MCF7 cells, briefly, cells were seeded in 384-microtiter well plate (1500 HeLa cells or 5000 MCF7 cells in 40 μL full medium per well) and let to attach overnight. Then the compound of the invention and the RE stressor were transferred to the cell culture plate using an Echo555 liquid handler (Labcyte) and 30 μL medium containing NucView™ and Hoechst 33342 were added. Final NucView™ 488 and Hoechst 33342 concentrations were 1 μM and 20 ng/mL, respectively. DMSO content was maintained at 0.2%. The microplates were incubated at 37° C. and 5% CO2 in an automated LiCONiC STR240 UB cell incubator, and images were acquired at various times at 405 nm and 488 nm with the high-resolution automated confocal microscope INCell 6000 (GE). Four fields per well were read with the 20× objective in a confocal mode. The BioCel workstation was managed by VWorks automation control software (Agilent).
(§3) For all cells, Columbus software (Perkin) was used for image quantification and analysis. First, Hoechst 33342 staining was used for an automated detection of nuclei, in which the mean fluorescence intensity for NucView™ 488 was quantified. Inspection of control cells at initial time was used to set a threshold level of NucView™ 488 fluorescence to separate non apoptotic cells from apoptotic cells. Finally, for each well, the result was expressed as percentage of apoptotic cells in the total cell population. CC50 values were calculated from concentration-response curves by a nonlinear regression analysis at four parameters using Excel Fit or GraphPad Prim softwares.
(§4) Activity=(% of apoptotic cells with cytotoxic agent in combination with compound of the invention)/(% of apoptotic cells with cytotoxic agent alone). • Ratio of CC50: The CC50 of the cytotoxic agent was calculated in absence and in presence of a compound of the invention.
(§5) Activity=(CC50 of agent alone)/(CC50 of agent with compound). • Ratio of AUC. Activity=(Area of the dose-concentration curve of cytotoxic agent combined with one concentration of compound)/(Area of the dose-concentration curve of cytotoxic agent alone). (Lehar J. et al, 2008 (molecular systems biology 4:215)).

MCF7 cells = assay: as above; type: cell-based, human; conditions: MCF7, compound at 15 μM
Experimental: Human epithelial MCF7 cells (mammary gland adenocarcinoma) are maintained in EMEM medium supplemented with GlutaMAX™, 10% fetal bovine serum, 0.01 mg insulin and 1% penicillin-streptomycin.
as §1, §2, §3, §4, §5

TLM1 cells [1] = assay: X-ray radiation in combination with compound, propidium iodide dead cells, ratio of corrected AUC; type: cell-based, canine
Experimental: (§6) Canine melanoma TLM-1 cells are maintained in DMEM medium supplemented with GlutaMAX™, 10% fetal bovine serum, 1× Hepes and 1% penicillin-streptomycin.
TLM-1 cells were seeded with the BioTek MicroFlo™ dispenser in μClear® black 384-well plates (Greiner) at the density of 20,000 cells/mL in 50 μL. Compounds for pre-treatment were added 2 h after the seeding, using an Echo 550 (Labcyte). The next day, cells were washed five times with 40 μL media without phenol red with a plate washer (Hydrospeed, Tecan). Cells were irradiated with 4, 6, 8, 12, 16, 20 and 24 Gray (Gy). […] This step was repeated every 72 h after radiation. Plates were incubated at 37° C. and 5% CO2. […] 4 images per well were collected. Images were analyzed with Columbus software (Perkin Elmer). In this system we used predefined building blocks to measure different parameters on nuclei detected. We applied a threshold based on propidium iodide intensity in nuclei of controls to select and count dead cells. By dividing the number of dead cells by the number of nuclei detected we obtained the percentage of dead cells. AUC were determined in one experiment with triplicate incubates on percentage of cells labelled with propidium iodide and were corrected by the percentage of cells labelled with propidium iodide at 0 Gy. Ratio of AUC corrected was determined as followed: Activity=(Area of the dose-concentration curve of cytotoxic agent combined with one concentration of compound corrected by the effect of the compound alone at 0Gy)/(Area of the dose-concentration curve of radiation alone corrected by the effect of the vehicle at 0Gy).

TLM1 cells [2] = assay: UV-C radiation in combination with compound, ratio of % propidium iodide labelled cells; type: cell-based, canine
Experimental: as §6
Plates were incubated at 37° C. and 5% CO2. […] 4 images per well were collected. Images were analyzed with Columbus software (Perkin Elmer). In this system we used predefined building blocks to measure different parameters on nuclei detected. We applied a threshold based on propidium iodide intensity in nuclei of controls to select and count dead cells. By dividing the number of dead cells by the number of nuclei detected we obtained the percentage of dead cells.

[3] = OPM2, compound at 7.5 μM (Table 5)
[4] = OPM2, compound at 7.5 μM (Table 6)

Compound	melting point	Activity: ratio (CC50 of CFZ alone)/(CC50 of CFZ in combination with compound of the invention) (OPM2 cells; [3])	Activity: ratio (CC50 of CFZ alone)/(CC50 of CFZ in combination with compound of the invention) (OPM2 cells; [4])	Activity: ratio (CC50 of CFZ alone)/(CC50 of CFZ in combination with compound of the invention) (HeLa cells)	Activity: ratio (CC50 of CFZ alone)/(CC50 of CFZ in combination with compound of the invention) (MCF7 cells)	further results
O=C(C[C@@H](Cc1ccc2ccccc2c1)n1cc(CNC(=O)c2ccccc2)nn1)NO [Compound 1, N-[1-((R)-2-Hydroxycarbamoyl-1-naphthalen-2-ylmethyl-ethyl)-1H-[1,2,3]triazol-4-ylmethyl]-benzamide]	192.8 to 194 °C					
COc1ccc(C(=O)NCc2cn([C@@H](CC(=O)NO)Cc3ccc4ccccc4c3)nn2)cc1 [Compound 2]	178.3 to 179.6 °C					
O=C(C[C@@H](Cc1ccc2ccccc2c1)n1cc(CNC(=O)c2ccc(C(F)(F)F)cc2)nn1)NO [Compound 4, N-[1-(R-2-Hydroxycarbamoyl-1-naphthalen-2-ylmethyl-ethyl)-1H-[1,2,3]triazol-4-ylmethyl]-4-trifluoromethyl-benzamide]	198.9 to 200.4 °C					
Cc1ccc(S(=O)(=O)NCc2cn([C@@H](CC(=O)NO)Cc3ccc4ccccc4c3)nn2)cc1 [Compound 5, (R)—N-Hydroxy-4-naphthalen-2-yl-3-{4-[(toluene-4-sulfonylamino)-methyl]-[1,2,3]triazol-1-yl}-butyramide]	115.8 to 117.2 °C					
O=C(C[C@@H](Cc1ccc2ccccc2c1)n1cc(CNS(=O)(=O)c2ccccc2)nn1)NO [Compound 7, (R)-3-[4-(Benzenesulfonylamino-methyl)-[1,2,3]triazol-1-yl]-N-hydroxy-4-naphthalen-2-yl-butyramide]	137.4 to 138.8 °C					
O=C(C[C@@H](Cc1ccc2ccccc2c1)n1cc(CNC(=O)CCc2ccccc2)nn1)NO [Compound 10, (R)—N-Hydroxy-4-naphthalen-2-yl-3-{4-[(3-phenyl-propionylamino)-methyl]-[1,2,3]triazol-1-yl}-butyramide]	150 to 151.4 °C					
O=C(C[C@@H](Cc1ccc2ccccc2c1)n1cc(CNC(=O)c2ccc(F)c(F)c2)nn1)NO [Compound 54, 3,4-difluoro-N-[[1-[(1R)-3-(hydroxyamino)-1-(2-naphthylmethyl)-3-oxo-propyl]triazol-4-yl]methyl]benzamide]		1.8	1.8	2.3	2.2	
O=C(C[C@@H](Cc1ccc2ccccc2c1)n1cc(CC(=O)Nc2ccc(F)cc2)nn1)NO [Compound 58, 3-{4-[(4-Fluoro-phenylcarbamoyl)-methyl]-[1,2,3]triazol-1-yl}-N-hydroxy-4-naphthalen-2-yl-butyramide]		1.4	1.4	2.7	2.0	
O=C(C[C@@H](Cc1ccc2ccccc2c1)n1cc(CNC(=O)c2ccc(F)c(Cl)c2)nn1)NO [Compound 62, 3-chloro-4-fluoro-N-[[1-[(1R)-3-(hydroxyamino)-1-(2-naphthylmethyl)-3-oxo-propyl]triazol-4-yl]methyl]benzamide]		1.6	1.6	3.0	2.6	
O=C(C[C@@H](C/C=C/c1ccccc1)n1cc(CNC(=O)c2ccc(F)c(F)c2)nn1)NO [Compound 75, 3,4-difluoro-N-[[1-[(E,1R)-1-[2-(hydroxyamino)-2-oxo-ethyl]-4-phenyl-but-3-enyl]triazol-4-yl]methyl]benzamide]		1.7	1.7	4.3	2.1	
Cc1cc(C(=O)NCc2cn([C@@H](CC(=O)NO)Cc3ccc4ccccc4c3)nn2)ccc1F [Compound 80, 4-fluoro-N-[[1-[(1R)-3-(hydroxyamino)-1-(2-naphthylmethyl)-3-oxo-propyl]triazol-4-yl]methyl]-3-methyl-benzamide]		2.2	2.2	3.6	2.4	Potency of X-ray radiations in combination with compound (in words) (TLM1 cells [1]; TLM1): increase the potency; Activity: ratio of corrected AUC of X-ray radiation in combination with compound / corrected AUC of X-ray radiation alone (TLM1 cells [1]; TLM1, compound at 30 μM): 2.7; Potency of UV-C radiations in combination with compound (in words) (TLM1 cells [2]; TLM1): increase the potency; Activity: ratio of percentage of cells labelling with propidium iodide, compound vs vehicle (TLM1 cells [2]; TLM1, 15 μM compound 24 h before and just after UV-C, 48 h after UV-C at 400 J/m^2, mean of three experiments): 2.3
O=C(C[C@@H](Cc1ccc2ccccc2c1)n1cc(CCC(=O)Nc2ccc(F)c(F)c2)nn1)NO [Compound 81, N-(3,4-difluorophenyl)-3-[1-[3-(hydroxyamino)-1-(2-naphthylmethyl)-3-oxo-propyl]triazol-4-yl]propanamide]		2.3	2.3	3.5	2.5	
